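Values below derive from 48-hour exposures of cells grown in 96-well plates, with endpoints linearly interpolated between the two concentrations bracketing the appropriate inhibition level. GI50 marks 50% less growth.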 Active and inactive are the calls of the source. No stated cut-off is given here; in the data, active = GI50 up to about 1.1 µM and inactive = higher.
Legend:
Assay in all cases: DTP human tumour cell line panel, 48 h
HL-60 = test system: HL-60
EKVX = test system: EKVX
SF-268 = test system: SF-268
UO-31 = test system: UO-31
NCI-H522 = test system: NCI-H522
MDA-N = test system: MDA-N
IGROV-1 = test system: IGROV-1
Hs-578T = test system: Hs-578T
K562 = test system: K562
HT-29 = test system: HT-29
A549 = test system: A549
SK-OV-3 = test system: SK-OV-3
SF-539 = test system: SF-539
OVCAR-3 = test system: OVCAR-3
HOP-62 = test system: HOP-62
NCI-H23 = test system: NCI-H23
HCC 2998 = test system: HCC 2998
SK-MEL-5 = test system: SK-MEL-5
SW-620 = test system: SW-620
NCI-H460 = test system: NCI-H460

Compound | GI50 (HL-60) | GI50 (EKVX) | GI50 (SF-268) | GI50 (UO-31) | GI50 (NCI-H522) | GI50 (MDA-N) | GI50 (IGROV-1) | GI50 (Hs-578T) | GI50 (K562) | GI50 (HT-29) | GI50 (A549) | GI50 (SK-OV-3) | GI50 (SF-539) | GI50 (OVCAR-3) | GI50 (HOP-62) | GI50 (NCI-H23) | GI50 (HCC 2998) | GI50 (SK-MEL-5) | GI50 (SW-620) | GI50 (NCI-H460)
O=C1c2ccccc2-c2c1c1ccccc1c(=O)n2CCO | 2.4 µM (inactive) | 10 µM (inactive) | 19.1 µM (inactive) | 4.06 µM (inactive) | 24 µM (inactive) | 51.8 µM (inactive) | 20.5 µM (inactive) | 29.8 µM (inactive) | > 36 µM (inactive) | 7.14 µM (inactive) | 5.27 µM (inactive) | 30.8 µM (inactive) | 10.6 µM (inactive) | 74 µM (inactive) | 5.4 µM (inactive) | 14.1 µM (inactive) | 24.8 µM (inactive) | 8.81 µM (inactive) | 7.29 µM (inactive) | 1.82 µM (inactive)
COc1ccc2c(c1)CCc1c(-c3noc4c3CCc3cc(OC)ccc3-4)noc1-2 | > 100 µM (inactive) | 53.1 µM (inactive) | > 100 µM (inactive) | > 100 µM (inactive) | > 100 µM (inactive) | > 100 µM (inactive) | > 100 µM (inactive) | > 100 µM (inactive) | > 100 µM (inactive) | > 100 µM (inactive) | > 100 µM (inactive) | > 100 µM (inactive) | > 100 µM (inactive) | > 100 µM (inactive) | > 100 µM (inactive) | > 100 µM (inactive) | 40.4 µM (inactive) | > 100 µM (inactive) | > 100 µM (inactive) | > 100 µM (inactive)
O=C(Cc1ccccc1)Nn1c(-c2ccccc2)nc2ccccc2c1=O | > 100 µM (inactive) | > 100 µM (inactive) | > 100 µM (inactive) | > 100 µM (inactive) | > 100 µM (inactive) | > 100 µM (inactive) | > 100 µM (inactive) | 42.3 µM (inactive) | > 100 µM (inactive) | > 100 µM (inactive) | > 100 µM (inactive) | > 100 µM (inactive) | > 100 µM (inactive) | > 100 µM (inactive) | > 100 µM (inactive) | > 100 µM (inactive) | > 100 µM (inactive) | 2.38 µM (inactive) | > 100 µM (inactive) | > 100 µM (inactive)
CN(C)CCCN1c2ccccc2CCc2cccc([N+](=O)[O-])c21 | 15.5 µM (inactive) | 49.3 µM (inactive) | 23.5 µM (inactive) | 17.4 µM (inactive) | 15.8 µM (inactive) | 16.2 µM (inactive) | 16.9 µM (inactive) | 23.3 µM (inactive) | 15.1 µM (inactive) | 14.6 µM (inactive) | 37.3 µM (inactive) | 28.6 µM (inactive) | 17.7 µM (inactive) | 16.3 µM (inactive) | 16.5 µM (inactive) | 34.4 µM (inactive) | 17.7 µM (inactive) | 16.4 µM (inactive) | 17.7 µM (inactive) | 18.2 µM (inactive)
O=C(Nc1ccccc1)c1cc(S(=O)(=O)Nc2nc3cccnc3[nH]2)c(SSc2cc(Cl)c(C(=O)Nc3ccccc3)cc2S(=O)(=O)Nc2nc3cccnc3[nH]2)cc1Cl | > 100 µM (inactive) | > 100 µM (inactive) | > 100 µM (inactive) | > 100 µM (inactive) | > 100 µM (inactive) | > 100 µM (inactive) | > 100 µM (inactive) | > 100 µM (inactive) | > 100 µM (inactive) | > 100 µM (inactive) | > 100 µM (inactive) | > 100 µM (inactive) | > 100 µM (inactive) | > 100 µM (inactive) | > 100 µM (inactive) | > 100 µM (inactive) | > 100 µM (inactive) | > 100 µM (inactive) | > 100 µM (inactive) | > 100 µM (inactive)
Cc1cc(=O)oc2c(C3=NN(C=O)C(c4ccccc4)C3)c(O)ccc12 (stereo not given) | > 100 µM (inactive) | 72.6 µM (inactive) | 31.6 µM (inactive) | 64.3 µM (inactive) | 54 µM (inactive) | > 54.8 µM (inactive) | 70 µM (inactive) | 31.2 µM (inactive) | > 91 µM (inactive) | > 80.7 µM (inactive) | 20.8 µM (inactive) | 20.2 µM (inactive) | 52.4 µM (inactive) | > 71.3 µM (inactive) | 37.1 µM (inactive) | 85.9 µM (inactive) | > 87.7 µM (inactive) | 56.2 µM (inactive) | > 100 µM (inactive) | 73.3 µM (inactive)
C=CCN1C[C@H](C)N([C@H](c2ccc(C(=O)NC(CC)CC)cc2)c2cccc(OC)c2)C[C@H]1C | 10.9 µM (inactive) | 79.4 µM (inactive) | 83.2 µM (inactive) | 21.2 µM (inactive) | 13.4 µM (inactive) | 37.3 µM (inactive) | 65.3 µM (inactive) | > 100 µM (inactive) | 32.4 µM (inactive) | 25.1 µM (inactive) | 33.9 µM (inactive) | > 100 µM (inactive) | 20.4 µM (inactive) | 52.4 µM (inactive) | > 100 µM (inactive) | 43.2 µM (inactive) | 29.2 µM (inactive) | 17.9 µM (inactive) | 29.9 µM (inactive) | 31 µM (inactive)
COc1ccccc1NC1Oc2cc3c(cc2C(c2cc(OC)c(OC)c(OC)c2)C1C)OCO3 (stereo not given) | 0.612 µM (active) | > 26.1 µM (inactive) | 3.62 µM (inactive) | 3.58 µM (inactive) | 1.45 µM (inactive) | 0.358 µM (active) | 3.24 µM (inactive) | 6.44 µM (inactive) | 0.875 µM (active) | 2.11 µM (inactive) | 4.53 µM (inactive) | 10.5 µM (inactive) | 1.7 µM (inactive) | 1.52 µM (inactive) | 5.26 µM (inactive) | 4.46 µM (inactive) | 3.04 µM (inactive) | 0.769 µM (active) | 1.19 µM (inactive) | 4.09 µM (inactive)
COC1=CC(=O)C2=C(C1=O)[C@H]1CC[C@]3(C)[C@@H](O)CC[C@H]3[C@@H]1CC2 | 13 µM (inactive) | 16.8 µM (inactive) | 17.3 µM (inactive) | 20.7 µM (inactive) | 17.9 µM (inactive) | 17.5 µM (inactive) | 21.9 µM (inactive) | 19.9 µM (inactive) | 28.9 µM (inactive) | 4.71 µM (inactive) | 18.4 µM (inactive) | 45 µM (inactive) | 16.9 µM (inactive) | 17.9 µM (inactive) | 16.2 µM (inactive) | 23.7 µM (inactive) | 20.7 µM (inactive) | 15.5 µM (inactive) | 32.7 µM (inactive) | 18.3 µM (inactive)
O=C(CSc1nc(O)nc2[nH]cnc12)Nc1ccccc1 | > 100 µM (inactive) | > 100 µM (inactive) | 69.2 µM (inactive) | > 100 µM (inactive) | 86.9 µM (inactive) | 57.5 µM (inactive) | > 100 µM (inactive) | 75 µM (inactive) | 85.3 µM (inactive) | > 100 µM (inactive) | > 100 µM (inactive) | > 100 µM (inactive) | 26.2 µM (inactive) | > 100 µM (inactive) | 52.8 µM (inactive) | > 100 µM (inactive) | > 100 µM (inactive) | 46.7 µM (inactive) | 66.4 µM (inactive) | > 100 µM (inactive)
O=C(Nc1c(Cl)cc([N+](=O)[O-])cc1Cl)C(=O)C1C(=O)NC(=S)NC1=O | > 100 µM (inactive) | > 100 µM (inactive) | > 100 µM (inactive) | > 100 µM (inactive) | > 100 µM (inactive) | > 100 µM (inactive) | > 100 µM (inactive) | > 100 µM (inactive) | > 100 µM (inactive) | > 100 µM (inactive) | > 100 µM (inactive) | > 100 µM (inactive) | > 100 µM (inactive) | > 100 µM (inactive) | > 100 µM (inactive) | > 100 µM (inactive) | > 100 µM (inactive) | > 100 µM (inactive) | > 100 µM (inactive) | > 100 µM (inactive)
[N-]=[N+]=Nc1ccc(CNc2cc(=O)[nH]c(=O)[nH]2)cc1 | > 100 µM (inactive) | > 100 µM (inactive) | > 100 µM (inactive) | > 100 µM (inactive) | > 100 µM (inactive) | > 100 µM (inactive) | > 95.7 µM (inactive) | > 100 µM (inactive) | > 100 µM (inactive) | > 100 µM (inactive) | > 100 µM (inactive) | > 100 µM (inactive) | > 100 µM (inactive) | > 100 µM (inactive) | > 100 µM (inactive) | > 100 µM (inactive) | > 100 µM (inactive) | > 100 µM (inactive) | > 64.1 µM (inactive) | > 100 µM (inactive)

Source: ChEMBL document CHEMBL1201862, “PubChem BioAssay data set” (2004)
